Laboratory results reported in PubChem BioAssay AID720588 (Broad Institute, 2013).

Tested on: HEK293T viability, CellTiter-Glo ATP luminescence, 72 h
Test: HEK293T cell cytotoxicity, dose response, cytotoxicity control, CellTiter-Glo luminescence, cherry-pick, set 3 (AID 720588);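 also: potency for luminescence loss meaning cytotoxic compounds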

Going from `COc1cccc(-c2cccc(-c3nc(C(=O)NCC(F)(F)F)cc4c3[C@H](CCO)N([S@@](=O)C(C)(C)C)C4)c2)c1` to `CCCCc1c(-c2ccccc2OC)ncn1Cc1ccc(C(C)(C)C)cc1`, the AC35 falls from 23.5 µM to 6.42 µM (3.7-fold).

`C/C(=N\Nc1cccc2cccnc12)c1ccccn1` and `CCOc1ccc(N=Nc2ccc(O)c3ncccc23)cc1` are within 1.5-fold of each other in AC35: 11.8 µM for the first, 13.4 µM for the second.

First: CC(C)=CCC/C(C)=C/CN1C(=O)N(c2ccc(F)cc2)[C@H]2C[C@@H](c3ccccc3)[C@@H](C)[C@@H](C(=O)N3CCOCC3)C[C@H]21
Second: O=C(C[C@@H]1C[C@H]2c3cc(NS(=O)(=O)c4ccc(F)cc4)ccc3O[C@H]2[C@H](CO)O1)NCc1ccc(-c2ccccc2)cc1
The AC35 of the first is 9.3-fold lower: 2.01 µM for the first, 18.7 µM for the second.

Going from `C=C1C(=O)[C@@]23[C@H](O)C[C@@H]4C(C)(C)CC[C@H](O)[C@@]4(C)[C@@H]2CC[C@@H]1[C@H]3O` to `CC1OC(OC2CC(O)C3(CO)C4C(O)CC5(C)C(C6=CC(=O)OC6)CCC5(O)C4CCC3(O)C2)C(O)C(O)C1O` (stereo unspecified), the AC35 falls from 6.9 µM to 0.0877 µM (79-fold).

Going from `C=C1C(=O)O[C@@H]2[C@H]1[C@@H](OC(=O)/C(C)=C/C)C/C(C)=C\C(=O)/C=C(\C)[C@@H]2O` to `CO[C@H]1CN(C)C(=O)c2cc(NC(=O)c3ccc(Oc4ccccc4)cc3)ccc2OC[C@H](C)NC[C@@H]1C`, the AC35 rises from 7.47 µM to 14.5 µM (1.9-fold).

Compared with `O=C1NC(=S)NC(=O)C1=Cc1cccn1-c1ccc(O)cc1`, `COc1ccc(NC(=S)N=Nc2c(O)[nH]c3ccccc23)cc1` is 2.6-fold lower in AC35: 19.5 µM for the first, 7.54 µM for the second.

Going from `CCCCCCCN(c1ccccc1)[C@@H]1C[C@H]2CCCC(=O)N3CC[C@@H](C1)[C@@H]23` to `C[C@H]1CN([C@@H](C)CO)C(=O)c2cc(N(C)C)ccc2O[C@@H]1CN(C)Cc1ccc(C(=O)Nc2ccccc2N)cc1`, the AC35 rises from 13.3 µM to 24.8 µM (1.9-fold).

Going from `COc1ccc(-c2cn(-c3ccc(OC)cc3)c3[n+]2-c2ccccc2CC3)cc1` to `CCN1CCS/C1=C\C=C\C1=[N+](CC)CCS1`, the AC35 rises from 7.06 µM to 11.2 µM (1.6-fold).
